Assay results taken from patent publication US20210321638A1, “ANIMAL FEED AND METHODS TO PROVIDE SUCH FEED” (Nutreco Nederland B.V., priority 2016, published 2021).

Columns and labels:
Salmonella typhimurium = test: in vitro adhesion of bacteria to coated 96-well plate, time to onset OD600; assay type: cell-based; settings: Table 4, Example 4; total amount of agents the same in all experiments; control 6.95
Description: Example 1 describes an in vitro model study for assessing the effect of ABM mycelium on bacterial adhesion. In this method the adhesion of Salmonella typhimurium to ABM mycelium is assessed.
(§1) Use was made of a 96-well plate on which the ABM mycelium was coated. For this, the ABM mycelium (in this and each case below a fermented rye product was actually used, in which product the amount of ABM mycelium was about 15% w/w) was suspended in PBS to a final concentration of 1% (w/v) and mixed thoroughly. Subsequently the suspension was centrifuged to remove insoluble material. Thereafter, the supernatant was used for coating the wells of the microtiter plate. For the adhesion assessment, a Salmonella typhimurium suspension was added to the microtiter plate. The plate was then incubated for 30 minutes and after this incubation step washed with PBS. Subsequently growth medium was added to the wells and the time to onset OD600 value was determined. The optical density (OD) measurement was used as a tool to compare numbers of adhered bacteria to the coated wells of the 96-well plate with different compounds. The initial cell density of adhered bacteria correlates with the time-dependent detection of the growth by optical density measurement.
In a second in vitro study, the test was repeated, and additionally the effect on Salmonella enteritidis and E. coli was measured. […]

E. coli = test: as above; assay type: cell-based, Escherichia coli
Description: as §1
In a second in vitro study, the test was repeated, and additionally the effect on Salmonella enteritidis and E. coli was measured. Also, the amount of ABM mycelium was used in the full amount (see above; denoted “100%”), half of this amount (“50%”) and a quarter of this amount (“25%”). […]

## OC[C@H]1O[C@@H](O[C@H]2[C@H](O)[C@H](O)C(O)O[C@@H]2CO)[C@@H](O)[C@@H](O)[C@@H]1O (stereo partly drawn) [β-1,4-mannobiose]
Salmonella typhimurium
  time to onset OD600, S. typhimurium: 5.90 h
E. coli; Example 4, compared to the control and β-1,4-mannobiose alone
  effect on the adhesion of E. coli / onset OD600, in words: does not have an effect
E. coli; Table 4, Example 4, total amount of agents the same in all experiments, control 7.10
  time to onset OD600, E. coli: 7.30 h
